According to ChEMBL document CHEMBL1201862, “PubChem BioAssay data set” (2004):
Calls of active or inactive are those of the source.

Columns and labels:
[1] = target: Likely tRNA 2'-phosphotransferase (Candida albicans (strain SC5314 / ATCC MYA-2876) (Yeast), UniProt Q5A7N4); assay: inhibition of Candida TPT1 enzyme activity – biochemical, fluorescence polarization, dose response (AID 2160)
[2] = target: Guanyl-specific ribonuclease T1 (Aspergillus oryzae (strain ATCC 42149 / RIB 40), UniProt P00651); assay: inhibition of ribonuclease T1 activity – biochemical, fluorescence polarization, 1536-well, counter-screen for TPT1 inhibitor project, dose response (AID 2167)
Guanyl-specific ribonuclease T1, sequence (P00651 whole entry): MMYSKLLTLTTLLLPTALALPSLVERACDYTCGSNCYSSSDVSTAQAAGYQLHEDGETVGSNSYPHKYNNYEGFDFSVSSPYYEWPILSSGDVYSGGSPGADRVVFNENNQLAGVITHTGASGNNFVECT

[3] = target: T1, Heat shock factor protein 1 (Mus musculus, UniProt P38532); assay: decrease of HSF1-responsive luciferase luminescence – cell-based, NIH3T3, dose retest, confirmation (AID 2382); type: functional;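 note: NIH3T3 fibroblasts with HSF1-driven luciferase reporter stressed by proteasome inhibitor MG132; luminescence from HSF1-driven luciferase expression after 8 hours of MG132 stress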
T1 sequence (P38532 whole entry): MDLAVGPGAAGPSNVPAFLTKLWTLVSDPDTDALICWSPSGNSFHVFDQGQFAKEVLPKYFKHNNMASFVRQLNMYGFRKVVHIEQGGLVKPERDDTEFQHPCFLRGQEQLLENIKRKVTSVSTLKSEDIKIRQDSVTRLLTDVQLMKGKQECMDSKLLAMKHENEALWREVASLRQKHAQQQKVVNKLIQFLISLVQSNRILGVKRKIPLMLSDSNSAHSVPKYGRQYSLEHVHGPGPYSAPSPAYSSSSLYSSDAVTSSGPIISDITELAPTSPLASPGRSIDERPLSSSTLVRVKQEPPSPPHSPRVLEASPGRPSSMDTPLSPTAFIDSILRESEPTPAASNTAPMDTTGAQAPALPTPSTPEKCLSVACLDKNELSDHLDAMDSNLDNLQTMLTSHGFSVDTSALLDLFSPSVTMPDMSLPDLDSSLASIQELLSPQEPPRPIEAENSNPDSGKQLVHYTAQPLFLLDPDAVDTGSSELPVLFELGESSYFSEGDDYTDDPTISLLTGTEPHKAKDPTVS

Bcl-2-like protein 10 = Bcl-2-like protein 10 (Homo sapiens, UniProt Q9HD36); assay: Bcl-B/TR3 peptide binding disruption – biochemical, fluorescence polarization, FITC-TR3 peptide, selectivity assay for Bfl-1 inhibitor project, primary screen (AID 748);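 note: fluorescence polarization from a fluorescein-labelled TR3 peptide binding purified Bcl-B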
Bcl-2-like protein 10, sequence (Q9HD36 whole entry): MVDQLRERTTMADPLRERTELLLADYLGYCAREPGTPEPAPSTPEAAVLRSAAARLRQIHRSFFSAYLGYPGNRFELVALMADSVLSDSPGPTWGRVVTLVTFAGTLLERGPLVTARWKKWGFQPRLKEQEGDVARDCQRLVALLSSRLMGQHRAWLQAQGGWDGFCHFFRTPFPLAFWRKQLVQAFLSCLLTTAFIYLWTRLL

[4] = target: Lysosomal acid glucosylceramidase (Homo sapiens, UniProt P04062); assay: Dose response cell-based high throughput screening assay to identify enhancers of beta-glucosidase activity. [Related pubchem assays: 784 ]; type: functional
Lysosomal acid glucosylceramidase, sequence (P04062 whole entry): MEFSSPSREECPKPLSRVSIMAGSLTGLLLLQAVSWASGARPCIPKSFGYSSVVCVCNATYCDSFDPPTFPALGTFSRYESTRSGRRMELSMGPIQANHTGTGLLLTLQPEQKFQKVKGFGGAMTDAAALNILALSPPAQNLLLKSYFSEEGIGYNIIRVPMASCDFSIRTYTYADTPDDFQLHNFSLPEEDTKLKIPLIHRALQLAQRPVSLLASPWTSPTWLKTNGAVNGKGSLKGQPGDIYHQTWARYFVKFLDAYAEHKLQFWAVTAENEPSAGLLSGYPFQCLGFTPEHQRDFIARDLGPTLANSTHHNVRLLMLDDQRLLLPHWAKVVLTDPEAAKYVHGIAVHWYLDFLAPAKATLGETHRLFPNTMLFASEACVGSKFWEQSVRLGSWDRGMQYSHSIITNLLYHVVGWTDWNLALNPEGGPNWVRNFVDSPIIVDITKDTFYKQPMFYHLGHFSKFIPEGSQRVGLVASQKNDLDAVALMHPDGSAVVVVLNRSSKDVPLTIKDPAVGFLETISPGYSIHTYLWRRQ

CAAX prenyl protease 2 [5] = target: T2, CAAX prenyl protease 2 (Homo sapiens, UniProt Q9Y256); assay: inhibition of Ras-converting CAAX protease Rce1 – biochemical, yeast membranes, quenched-peptide fluorescence, cherry-pick, dose response (AID 588849)
T2 sequence (Q9Y256 whole entry): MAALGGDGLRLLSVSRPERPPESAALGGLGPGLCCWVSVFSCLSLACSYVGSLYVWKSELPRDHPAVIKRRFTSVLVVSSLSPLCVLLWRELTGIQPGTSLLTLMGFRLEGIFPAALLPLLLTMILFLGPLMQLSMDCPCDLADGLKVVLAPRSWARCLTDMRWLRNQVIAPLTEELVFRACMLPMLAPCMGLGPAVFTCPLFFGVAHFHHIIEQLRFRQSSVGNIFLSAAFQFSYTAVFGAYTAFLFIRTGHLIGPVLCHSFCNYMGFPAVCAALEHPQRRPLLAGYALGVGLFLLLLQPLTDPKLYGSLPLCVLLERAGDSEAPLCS

CAAX prenyl protease 2 [6] = target: T3, CAAX prenyl protease 2 (Saccharomyces cerevisiae S288c, UniProt Q03530); type: biochemical
T3 sequence (Q03530 whole entry): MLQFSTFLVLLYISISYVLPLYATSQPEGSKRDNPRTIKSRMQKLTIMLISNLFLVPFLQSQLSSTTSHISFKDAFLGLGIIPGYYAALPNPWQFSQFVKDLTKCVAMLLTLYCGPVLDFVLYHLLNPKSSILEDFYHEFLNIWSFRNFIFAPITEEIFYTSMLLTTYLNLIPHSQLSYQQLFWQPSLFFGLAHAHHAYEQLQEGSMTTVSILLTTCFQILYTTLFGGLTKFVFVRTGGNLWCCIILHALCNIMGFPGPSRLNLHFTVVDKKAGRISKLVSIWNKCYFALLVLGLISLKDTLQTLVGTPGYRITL

[7] = target: T4, Replicative DNA helicase DnaB (Mycobacterium tuberculosis, UniProt P9WMR3); assay: DnaB intein splicing inhibitors, dose response, biochemical, cell-free fluorescence (AID 449749); type: functional
T4 sequence (P9WMR3 whole entry): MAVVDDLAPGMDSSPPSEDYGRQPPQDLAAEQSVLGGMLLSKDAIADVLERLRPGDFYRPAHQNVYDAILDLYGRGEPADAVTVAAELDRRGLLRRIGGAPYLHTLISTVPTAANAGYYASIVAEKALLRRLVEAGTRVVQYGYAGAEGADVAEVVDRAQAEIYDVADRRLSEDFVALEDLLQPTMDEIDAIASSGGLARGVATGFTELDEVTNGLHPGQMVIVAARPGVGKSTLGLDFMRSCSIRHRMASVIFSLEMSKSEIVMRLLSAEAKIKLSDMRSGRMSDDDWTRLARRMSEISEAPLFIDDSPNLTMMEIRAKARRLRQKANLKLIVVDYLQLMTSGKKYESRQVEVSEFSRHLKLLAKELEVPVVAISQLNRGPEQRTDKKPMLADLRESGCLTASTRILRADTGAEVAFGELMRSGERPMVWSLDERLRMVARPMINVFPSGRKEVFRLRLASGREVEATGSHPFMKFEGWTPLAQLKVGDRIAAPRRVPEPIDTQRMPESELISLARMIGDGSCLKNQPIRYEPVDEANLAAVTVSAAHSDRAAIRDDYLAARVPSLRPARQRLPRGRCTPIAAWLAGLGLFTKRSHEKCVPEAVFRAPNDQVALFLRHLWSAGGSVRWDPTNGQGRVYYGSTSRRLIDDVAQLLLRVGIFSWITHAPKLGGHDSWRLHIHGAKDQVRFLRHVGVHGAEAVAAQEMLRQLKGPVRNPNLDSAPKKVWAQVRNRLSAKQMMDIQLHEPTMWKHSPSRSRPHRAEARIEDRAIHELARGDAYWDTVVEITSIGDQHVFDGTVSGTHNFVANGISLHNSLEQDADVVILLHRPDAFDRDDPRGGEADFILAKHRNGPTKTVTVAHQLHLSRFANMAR

[8] = NIH-3T3 fibroblast cytotoxicity, dose response, cytotoxicity control, cell-based, fluorescence, Alamar Blue, secondary assay (AID 2327); type: functional;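 note: NIH-3T3 mouse fibroblasts cultured with fluconazole at 8 µg/mL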
Protein RecA = target: T5, Protein RecA (Mycobacterium tuberculosis, UniProt P9WHJ3); assay: Fluorescence Cell-Free Homogeneous Dose Retest to Identify Inhibitors of RecA-Intein Splicing Activity. [Related pubchem assays (depositor defined):AID2097, AID2223, AID489010, AID492950]; type: functional
T5 sequence (P9WHJ3 whole entry): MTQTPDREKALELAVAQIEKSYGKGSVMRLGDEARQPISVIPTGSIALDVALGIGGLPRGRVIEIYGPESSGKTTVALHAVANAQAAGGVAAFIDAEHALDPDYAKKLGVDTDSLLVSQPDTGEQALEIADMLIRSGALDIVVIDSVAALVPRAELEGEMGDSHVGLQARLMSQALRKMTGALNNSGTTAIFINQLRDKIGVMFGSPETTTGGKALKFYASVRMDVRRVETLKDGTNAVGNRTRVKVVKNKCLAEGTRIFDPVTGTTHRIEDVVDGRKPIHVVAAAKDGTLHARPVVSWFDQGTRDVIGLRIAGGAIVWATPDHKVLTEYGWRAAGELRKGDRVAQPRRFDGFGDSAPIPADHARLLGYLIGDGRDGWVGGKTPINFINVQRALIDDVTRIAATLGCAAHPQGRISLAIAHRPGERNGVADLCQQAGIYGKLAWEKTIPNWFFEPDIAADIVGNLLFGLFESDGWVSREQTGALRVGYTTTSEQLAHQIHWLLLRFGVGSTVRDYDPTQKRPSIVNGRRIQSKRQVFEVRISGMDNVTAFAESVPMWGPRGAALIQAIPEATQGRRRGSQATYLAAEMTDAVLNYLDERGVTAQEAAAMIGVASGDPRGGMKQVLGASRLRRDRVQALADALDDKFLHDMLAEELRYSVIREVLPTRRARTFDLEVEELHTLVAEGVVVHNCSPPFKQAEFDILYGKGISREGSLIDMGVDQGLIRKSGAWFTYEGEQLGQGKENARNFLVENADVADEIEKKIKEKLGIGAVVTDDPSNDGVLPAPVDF

INS1 = assay: INS-1E survival protection against cytokine death – cell-based, luminescence, retest, dose response (AID 449756); type: functional; details: Rattus norvegicus;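 note: cell death triggered by IL-1 beta plus TNF-alpha plus IFN-gamma mixture; protective hits raise ATP signal compared with cytokine alone wells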
[9] = target: T6, Ubiquitin-conjugating enzyme E2 N (Homo sapiens, UniProt P61088); type: functional
T6 sequence (P61088 whole entry): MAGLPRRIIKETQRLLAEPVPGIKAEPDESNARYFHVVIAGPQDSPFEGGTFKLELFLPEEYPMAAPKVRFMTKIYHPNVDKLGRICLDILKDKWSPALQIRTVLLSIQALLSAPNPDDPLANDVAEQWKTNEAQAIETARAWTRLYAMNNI

Bcl-2-related protein A1 = target: T7, Bcl-2-related protein A1 (Mus musculus, UniProt Q07440); type: functional;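 note: confirmatory dose–response counterscreen on Bfl-1, used to check hits from a UBC13 polyubiquitin inhibitor campaign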
T7 sequence (Q07440 whole entry): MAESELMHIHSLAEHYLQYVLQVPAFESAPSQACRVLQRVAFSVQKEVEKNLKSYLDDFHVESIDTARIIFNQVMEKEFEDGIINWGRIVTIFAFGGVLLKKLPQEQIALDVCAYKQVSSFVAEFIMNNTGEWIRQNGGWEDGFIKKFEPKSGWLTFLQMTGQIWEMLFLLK

[10] = fluconazole-exposed Candida albicans growth modulators – fluorescence, retest, confirmation (AID 2467); type: functional, cell-based
[11] = target: Transitional endoplasmic reticulum ATPase (Homo sapiens, UniProt P55072); assay: p97 ATPase inhibitors, dose response, biochemical (AID 1534)
Transitional endoplasmic reticulum ATPase (Homo sapiens, UniProt P55072), sequence (P55072 whole entry): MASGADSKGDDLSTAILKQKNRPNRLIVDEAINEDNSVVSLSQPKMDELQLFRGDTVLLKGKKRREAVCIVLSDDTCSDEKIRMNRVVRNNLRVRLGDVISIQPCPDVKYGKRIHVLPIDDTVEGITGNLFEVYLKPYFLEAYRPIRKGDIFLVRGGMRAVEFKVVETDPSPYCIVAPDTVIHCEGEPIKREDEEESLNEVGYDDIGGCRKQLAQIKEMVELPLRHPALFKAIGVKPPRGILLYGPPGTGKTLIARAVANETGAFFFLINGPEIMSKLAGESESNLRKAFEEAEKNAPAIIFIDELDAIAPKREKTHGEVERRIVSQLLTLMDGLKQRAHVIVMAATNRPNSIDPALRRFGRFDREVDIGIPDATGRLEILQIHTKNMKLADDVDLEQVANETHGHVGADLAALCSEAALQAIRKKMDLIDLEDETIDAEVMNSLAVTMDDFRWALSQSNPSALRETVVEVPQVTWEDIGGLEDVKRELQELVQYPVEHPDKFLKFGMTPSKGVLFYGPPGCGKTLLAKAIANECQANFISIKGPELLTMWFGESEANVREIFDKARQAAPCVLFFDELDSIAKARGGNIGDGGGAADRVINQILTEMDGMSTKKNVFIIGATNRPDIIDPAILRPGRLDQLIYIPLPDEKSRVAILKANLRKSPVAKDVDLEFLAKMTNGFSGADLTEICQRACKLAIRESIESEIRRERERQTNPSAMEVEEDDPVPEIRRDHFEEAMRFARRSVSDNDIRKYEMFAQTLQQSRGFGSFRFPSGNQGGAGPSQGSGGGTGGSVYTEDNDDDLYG

[12] = target: Transitional endoplasmic reticulum ATPase (Homo sapiens, UniProt P55072, C522A); assay: C522A mutant p97 ATPase inhibitors, dose response, counter-screen for p97 inhibitor project, biochemical, luminescence (AID 1544)
Transitional endoplasmic reticulum ATPase (Homo sapiens, UniProt P55072, C522A), sequence (P55072 2-806 C522A limits assumed): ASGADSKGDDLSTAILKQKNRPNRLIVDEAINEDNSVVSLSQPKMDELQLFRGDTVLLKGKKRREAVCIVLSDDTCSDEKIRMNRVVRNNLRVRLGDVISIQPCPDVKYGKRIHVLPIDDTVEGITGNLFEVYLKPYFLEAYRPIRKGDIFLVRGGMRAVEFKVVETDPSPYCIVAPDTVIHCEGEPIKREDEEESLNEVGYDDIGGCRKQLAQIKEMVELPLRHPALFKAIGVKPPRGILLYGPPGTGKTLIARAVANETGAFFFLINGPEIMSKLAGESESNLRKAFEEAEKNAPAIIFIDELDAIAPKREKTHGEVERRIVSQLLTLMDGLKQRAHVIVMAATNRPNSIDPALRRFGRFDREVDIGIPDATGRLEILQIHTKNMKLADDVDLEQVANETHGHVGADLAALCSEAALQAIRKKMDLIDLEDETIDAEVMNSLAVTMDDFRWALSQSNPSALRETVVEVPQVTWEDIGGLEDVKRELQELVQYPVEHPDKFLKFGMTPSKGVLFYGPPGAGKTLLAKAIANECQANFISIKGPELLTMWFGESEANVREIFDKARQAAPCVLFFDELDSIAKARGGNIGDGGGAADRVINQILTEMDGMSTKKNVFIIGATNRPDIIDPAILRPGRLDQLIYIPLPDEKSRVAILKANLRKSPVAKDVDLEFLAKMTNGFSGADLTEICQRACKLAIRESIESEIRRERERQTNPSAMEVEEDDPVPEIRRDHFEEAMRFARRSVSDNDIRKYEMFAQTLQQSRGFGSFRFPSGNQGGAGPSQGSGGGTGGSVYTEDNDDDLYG

[13] = target: T6, Ubiquitin-conjugating enzyme E2 N; type: functional; remark: listed apart in the source
Trypsin = Trypsin (Sus scrofa, UniProt P00761); assay: trypsin protease activity blockade – biochemical, quenched peptide fluorescence, cherry-pick, selectivity assay for Rce1 protease inhibitor project, dose response (AID 488789)
Trypsin, sequence (P00761 whole entry): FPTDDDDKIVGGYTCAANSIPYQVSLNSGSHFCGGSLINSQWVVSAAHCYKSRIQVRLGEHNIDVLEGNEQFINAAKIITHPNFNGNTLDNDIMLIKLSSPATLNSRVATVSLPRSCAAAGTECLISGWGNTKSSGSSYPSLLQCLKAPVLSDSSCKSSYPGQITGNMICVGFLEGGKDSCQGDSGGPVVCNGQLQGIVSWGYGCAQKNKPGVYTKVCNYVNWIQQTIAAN

[14] = target: Cyclin-dependent kinase 5/CDK5 activator 1 (Homo sapiens, UniProt Q00535); assay: blockade of human CDK5 activity – biochemical, cherry-picked samples, set 2, dose response (AID 504545)
Cyclin-dependent kinase 5/CDK5 activator 1, sequence (Q00535 whole entry): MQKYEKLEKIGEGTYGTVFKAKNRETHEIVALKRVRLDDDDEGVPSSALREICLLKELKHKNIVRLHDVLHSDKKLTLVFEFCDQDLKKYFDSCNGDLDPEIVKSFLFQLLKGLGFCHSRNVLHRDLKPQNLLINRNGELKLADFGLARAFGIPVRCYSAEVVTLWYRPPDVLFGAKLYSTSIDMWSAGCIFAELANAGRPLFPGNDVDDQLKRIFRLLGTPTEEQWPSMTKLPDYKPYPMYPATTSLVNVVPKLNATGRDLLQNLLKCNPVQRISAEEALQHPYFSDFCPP
Cyclin-dependent kinase 5/CDK5 activator 1, sequence (Q15078 whole entry, further chain): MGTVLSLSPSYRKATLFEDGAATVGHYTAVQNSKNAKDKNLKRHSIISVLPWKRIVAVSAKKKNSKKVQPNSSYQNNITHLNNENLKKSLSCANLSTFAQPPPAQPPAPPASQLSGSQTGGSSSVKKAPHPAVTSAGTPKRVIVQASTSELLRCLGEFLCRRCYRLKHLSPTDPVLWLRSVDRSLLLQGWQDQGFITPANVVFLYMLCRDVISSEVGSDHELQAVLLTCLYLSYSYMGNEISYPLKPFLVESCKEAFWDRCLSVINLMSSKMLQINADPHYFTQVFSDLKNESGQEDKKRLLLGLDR

[15] = target: Voltage-gated N-type calcium channel alpha-1B subunit/Amyloid beta A4 precursor protein-binding family A member 1 (Homo sapiens, UniProt Q00975+Q02410); assay: disruptors of Mint-PDZ/N-type channel peptide interaction – biochemical, HTRF, set 2, SAR follow-up (AID 434980); type: functional
[16] = blockers of SFLLRN-triggered platelet ATP secretion – cell-based, human platelets, luminescence, dry powder, dose response (AID 493100); type: functional
[17] = target: G-protein coupled receptor 35 (Homo sapiens, UniProt Q9HC97); assay: inhibition of zaprinast-stimulated GPR35 beta-arrestin translocation – imaging, U2OS, beta-arrestin-GFP, zaprinast agonist, primary screen (AID 2058); type: functional;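 note: antagonist potency meaning inhibition of agonist-induced arrestin redistribution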
G-protein coupled receptor 35, sequence (Q9HC97 whole entry): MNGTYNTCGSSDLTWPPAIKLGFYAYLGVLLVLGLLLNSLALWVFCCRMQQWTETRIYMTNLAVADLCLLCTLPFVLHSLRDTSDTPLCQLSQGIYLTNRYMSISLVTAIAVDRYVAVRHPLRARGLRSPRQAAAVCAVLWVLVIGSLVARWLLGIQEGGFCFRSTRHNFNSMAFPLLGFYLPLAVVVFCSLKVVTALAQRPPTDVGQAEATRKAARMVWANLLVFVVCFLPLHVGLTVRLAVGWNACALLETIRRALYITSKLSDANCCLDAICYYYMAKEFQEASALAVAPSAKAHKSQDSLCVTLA

Streptococcus = assay: GAS UMAA2166 growth inhibition – luminescence, BacTiterGlo, counter-screen for streptokinase expression inhibitor project, dose response (AID 1915); type: functional, organism-based;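 note: potency for reduction of bacterial viability or growth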
[18] = tested on: Streptococcus sp. 'group A'; assay: Streptococcus pyogenes SK(-)GAS viability under kanamycin – luminescence, BacTiterGlo, confirmation, counter-screen for streptokinase expression inhibitor project, dose response (AID 1900); type: functional, organism-based
[19] = viability of uninfected HEp-2 cells – cell-based, HTS, cytotoxicity control for RSV inhibitor project, dose response (AID 2410); type: functional; details: human respiratory syncytial virus
Streptokinase A = target: T8, Streptokinase A (Streptococcus pyogenes serotype M1, UniProt P10520); assay: viability-normalized secreted streptokinase activity reduction – plasminogen activation absorbance, OD405, dose response (AID 1914); type: functional, Streptococcus pyogenes M1 GAS;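 note: secreted streptokinase activity via plasminogen activation per viability signal from cell pellet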
T8 sequence (P10520 whole entry): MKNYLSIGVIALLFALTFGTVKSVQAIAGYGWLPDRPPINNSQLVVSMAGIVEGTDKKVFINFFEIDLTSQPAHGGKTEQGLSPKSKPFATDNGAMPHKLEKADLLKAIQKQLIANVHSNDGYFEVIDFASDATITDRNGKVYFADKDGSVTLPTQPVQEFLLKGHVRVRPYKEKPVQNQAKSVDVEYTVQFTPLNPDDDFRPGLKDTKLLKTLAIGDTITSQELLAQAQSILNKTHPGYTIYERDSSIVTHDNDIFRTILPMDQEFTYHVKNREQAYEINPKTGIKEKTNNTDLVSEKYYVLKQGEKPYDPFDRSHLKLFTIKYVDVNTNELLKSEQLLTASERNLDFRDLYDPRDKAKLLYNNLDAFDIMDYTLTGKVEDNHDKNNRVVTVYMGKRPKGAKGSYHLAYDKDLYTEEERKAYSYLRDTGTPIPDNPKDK

Likely tRNA 2'-phosphotransferase, sequence (Q5A7N4 whole entry): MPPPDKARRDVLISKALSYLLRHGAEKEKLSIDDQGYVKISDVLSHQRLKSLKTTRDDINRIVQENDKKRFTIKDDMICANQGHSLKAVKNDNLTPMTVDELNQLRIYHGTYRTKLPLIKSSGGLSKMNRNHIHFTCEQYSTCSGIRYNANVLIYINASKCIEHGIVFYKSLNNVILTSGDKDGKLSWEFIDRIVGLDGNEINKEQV

## Cc1ccc(OCCn2cccc2/C=C2/C(=O)NC(=O)N(Cc3ccco3)C2=O)cc1
[1]
  IC50: > 55.7 µM (not active)
[2]
  IC50: > 55.7 µM (not active)

## COc1ccc(NC(=O)c2cc(CN3C(=O)c4ccccc4C3=O)ccc2OC)cn1
[3]
  EC50: > 195 µM (not active)
Bcl-2-like protein 10
  IC50: > 25 µM (inactive)

## COc1ccc(OC)c(Nc2nc(-c3sc(N)nc3C)cs2)c1
[4]
  EC50: > 50 µM (not active)

## c1ccc(CNc2nc(NCc3ccccc3)c3ccccc3n2)cc1
CAAX prenyl protease 2 [5]
  AC50: 9.69 µM (active)
CAAX prenyl protease 2 [6]
  AC50: 39.5 µM (active)
[7]
  AC50: 6.13 µM (active)
[8]
  EC50: > 150 µM (inconclusive)
Protein RecA
  EC50: 7.83 µM (active)
INS1
  AC50: 7.6 µM (active)
[9]
  IC50: 11 µM (active)
Bcl-2-related protein A1
  IC50: 12.4 µM (active)
[10]
  EC50: > 38 µM (not active)
[11]
  IC50: > 50 µM (not active)
[12]
  IC50: > 50 µM (not active)
[13]
  IC50: 19.6 µM (active)
Trypsin
  AC50: 13.6 µM (active)

## C=CCNC(=O)c1[nH]nc2c1CC(C(C)(C)CC)CC2 (stereo unspecified)
[14]
  AC50: 3.18 µM (active)

## O=C(c1cc(-c2ccco2)nc2ccccc12)N1CCc2cccnc21
[15]
  IC50: > 56.8 µM (inactive)

## O=C(N/N=C/c1ccc(NC(=O)C(F)(F)F)cc1)C1CCCC1
[16]
  AC50: 22.3 µM (active)

## CCOc1ccc(/C=N/NC(=O)Cc2csc(Nc3cccc(C(F)(F)F)c3)n2)cc1
[17]
  IC50: 2.1 µM (active)
Streptococcus
  EC50: 20.2 µM (active)
[18]
  EC50: 8.02 µM (active)
[19]
  CC50: 12.2 µM (active)
Streptokinase A
  EC50: 20.1 µM (active)
